Tests used:
BRD9 [1] = target: T1, BRD9 (Homo sapiens, UniProt Q9H8M2); assay: BRD9 degradation, HiBiT-BRD9 KI HEK293 (LgBiT) cells, NanoGlo Lytic Endpoint assay (Assay Protocol 1); type: cell-based; settings: BRD9 degradation; for Dmax / Dmax at 1 µM: HEK293; for Dmax: read-out: Dmax^1; for Dmax at 1 µM: 1 μM compound at 6 h of treatment, read-out: Assay 1 Dmax
T1 sequence (Q9H8M2 1-597): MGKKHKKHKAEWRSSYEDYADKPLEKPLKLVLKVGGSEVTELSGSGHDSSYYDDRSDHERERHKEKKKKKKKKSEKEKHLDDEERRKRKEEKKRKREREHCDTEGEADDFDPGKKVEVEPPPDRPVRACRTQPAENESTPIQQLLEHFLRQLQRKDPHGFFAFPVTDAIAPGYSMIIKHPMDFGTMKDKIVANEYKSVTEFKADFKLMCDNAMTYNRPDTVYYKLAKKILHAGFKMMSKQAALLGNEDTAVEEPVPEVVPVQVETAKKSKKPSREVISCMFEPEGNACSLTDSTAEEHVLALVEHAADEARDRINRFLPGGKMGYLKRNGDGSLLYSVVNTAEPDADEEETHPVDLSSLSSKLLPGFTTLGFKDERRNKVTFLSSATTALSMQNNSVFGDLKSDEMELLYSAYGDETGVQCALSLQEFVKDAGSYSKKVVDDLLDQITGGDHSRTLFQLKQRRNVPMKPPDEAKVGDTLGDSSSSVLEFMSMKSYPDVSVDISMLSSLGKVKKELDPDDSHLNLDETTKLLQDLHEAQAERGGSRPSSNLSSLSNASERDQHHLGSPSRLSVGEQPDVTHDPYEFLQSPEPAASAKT
In short: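 HiBiT-tagged BRD9 knock-in HEK293 (LgBiT) cells exposed to compounds for 6 h at 37 °C, 5% CO2. Residual BRD9 measured by HiBiT lytic luminescence. % BRD9 remaining normalised to DMSO-treated cells (high) and no-cell wells (low).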

BRD9 [2] = target: T1, BRD9; assay: Degradation of BRD9 (IF), immunofluorescence in MV4-11 cells, 24 hours (Assay Protocol 2); type: cell-based; design: A suspension of MV4-11 cells (ATCC CRL-9591) was prepared; host or cells: MV4-11; settings: BRD9 degradation, determined according to Assay Protocol 2; for Dmax: MV4-11, Table 4, read-out: Dmax^2; for DC50: Table 4, read-out: DC50^2
In short: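 MV4-11 cells treated with compound 24 h at 37° C., then fixed, permeabilised and immunostained for BRD9 (anti-BRD9 E4Q3F, Alexa 647 secondary, Hoechst counterstain). High-content imaging quantified nuclear BRD9 signal; % BRD9 remaining normalised to DMSO and 100 nM CFT-8634 controls.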

[3] = Table 4, determined according to Assay Protocol 1, read-out: DC50^1
[4] = Table 4, determined according to Assay Protocol 1
[5] = Table 2, Assay Protocol 1, 6 h of treatment, read-out: Assay 1 DC50

| SMILES | DC50 (BRD9 [1]; [3]) | Dmax (BRD9 [2]) | Dmax at 1 µM (BRD9 [1]; Table 2, Assay Protocol 1) | DC50 (BRD9 [1]; [5]) | DC50 (BRD9 [2]) | Dmax (BRD9 [1]; [4]) |
| --- | --- | --- | --- | --- | --- | --- |
| COc1cc(-c2cn(C)c(=O)c(C)c2C)cc(OC)c1CN1CC2CC(C1)N2C(=O)/C(C#N)=C/c1cccc(Br)n1 (mixture of isomers) [BRD9m, (E/Z)-3-(6-bromopyridin-2-yl)-2-(3-(2,6-dimethoxy-4-(1,4,5-trimethyl-6-oxo-1,6-dihydropyridin-3-yl)benzyl)-3,6-diazabicyclo[3.1.1]heptane-6-carbonyl)acrylonitrile] | < 0.025 µM | – | – | – | > 0.2 µM | > 70% |
| COc1cc(-c2cn(C)c(=O)c(C)c2C)cc(OC)c1CN1C2CC1CN(C(=O)/C(C#N)=C/c1nccs1)C2 (mixture of isomers) [BRD9n, (E/Z)-2-(6-(2,6-dimethoxy-4-(1,4,5-trimethyl-6-oxo-1,6-dihydropyridin-3-yl)benzyl)-3,6-diazabicyclo[3.1.1]heptane-3-carbonyl)-3-(thiazol-2-yl)acrylonitrile] | – | – | – | – | 0.025 to 0.2 µM | 50 to 70% |
| COc1cc(-c2cn(C)c(=O)c(C)c2C)cc(OC)c1CN1C2CC1CN(C(=O)/C(C#N)=C/C1(C(F)(F)F)CCC1)C2 (mixture of isomers) [BRD9p, (E/Z)-2-(6-(2,6-dimethoxy-4-(1,4,5-trimethyl-6-oxo-1,6-dihydropyridin-3-yl)benzyl)-3,6-diazabicyclo[3.1.1]heptane-3-carbonyl)-3-(1-(trifluoromethyl)cyclobutyl)acrylonitrile] | – | > 70% | – | – | – | > 70% |
| COc1cc(-c2cn(C)c(=O)c(C)c2C)cc(OC)c1CN1CC2CCC(C1)N2C(=O)/C(C#N)=C/c1nccs1 (mixture of isomers) [BRD9q, (E/Z)-2-(3-(2,6-dimethoxy-4-(1,4,5-trimethyl-6-oxo-1,6-dihydropyridin-3-yl)benzyl)-3,8-diazabicyclo[3.2.1]octane-8-carbonyl)-3-(thiazol-2-yl)acrylonitrile] | – | – | – | – | < 0.025 µM | 50 to 70% |
| COc1cc(-c2cn(C)c(=O)c3cnccc23)cc(OC)c1CN1CC2CC1CN2Cc1cccc2c1CCN(C(=O)/C(C#N)=C/C(C)(C)C)C2C (single isomer, unassigned) [Compound A39, (E/Z)-2-(5-((5-(2,6-dimethoxy-4-(2-methyl-1-oxo-1,2-dihydro-2,7-naphthyridin-4-yl)benzyl)-2,5-diazabicyclo[2.2.1]heptan-2-yl)methyl)-1-methyl-1,2,3,4-tetrahydroisoquinoline-2-carbonyl)-4,4-dimethylpent-2-enenitrile] | – | – | 40 to 70% | 0.00125 to 0.01 µM | – | – |

Further lines, with some results ahead:

| DC50 (BRD9 [1]; [3]) | Dmax (BRD9 [2]) | Dmax at 1 µM (BRD9 [1]; Table 2, Assay Protocol 1) | DC50 (BRD9 [1]; [5]) | SMILES | DC50 (BRD9 [2]) | Dmax (BRD9 [1]; [4]) |
| --- | --- | --- | --- | --- | --- | --- |
| < 0.025 µM | > 70% | – | – | COc1cc(-c2cn(C)c(=O)c(C)c2C)cc(OC)c1CN1CC2CC1CN2C(=O)/C(C#N)=C/c1cccc(Br)n1 (mixture of isomers) [BRD9j, (E/Z)-3-(6-bromopyridin-2-yl)-2-(5-(2,6-dimethoxy-4-(1,4,5-trimethyl-6-oxo-1,6-dihydropyridin-3-yl)benzyl)-2,5-diazabicyclo[2.2.1]heptane-2-carbonyl)acrylonitrile] | < 0.025 µM | – |
| < 0.025 µM | 50 to 70% | – | – | COc1cccc(/C=C(\C#N)C(=O)N2CC3CC2CN3Cc2c(OC)cc(-c3cn(C)c(=O)c(C)c3C)cc2OC)n1 (mixture of isomers) [BRD9k, (E/Z)-2-(5-(2,6-dimethoxy-4-(1,4,5-trimethyl-6-oxo-1,6-dihydropyridin-3-yl)benzyl)-2,5-diazabicyclo[2.2.1]heptane-2-carbonyl)-3-(6-methoxypyridin-2-yl)acrylonitrile] | < 0.025 µM | – |
| – | – | 40 to 70% | 0.01 to 0.025 µM | COc1cc(-c2cn(C)c(=O)c(C)c2C)cc(OC)c1CN1CCN(Cc2cccc3c2CCN(C(=O)/C(C#N)=C/c2ccn(C)n2)C3C)CC1 (stereo not shown) [Compound A8, (E)-2-(5-((4-(2,6-dimethoxy-4-(1,4,5-trimethyl-6-oxo-1,6-dihydropyridin-3-yl)benzyl)piperazin-1-yl)methyl)-1-methyl-1,2,3,4-tetrahydroisoquinoline-2-carbonyl)-3-(1-methyl-1H-pyrazol-3-yl)acrylonitrile] | – | – |
